In ChEMBL document CHEMBL1135480, “Design and quantitative structure-activity relationship of 3-amidinobenzyl-1H-indole-2-carboxamides as potent, nonchiral, and selective inhibitors of blood coagulation factor Xa” (J Med Chem, 2002):
Several values for one entry are separate records, joined by “and”; a condition that tells them apart may be missing. Identical values can stand only once.

Target: Coagulation factor X (Homo sapiens, UniProt P00742)
Experiment: Inhibition of Coagulation factor Xa

Sequence of Coagulation factor X (P00742 41-179 limits assumed): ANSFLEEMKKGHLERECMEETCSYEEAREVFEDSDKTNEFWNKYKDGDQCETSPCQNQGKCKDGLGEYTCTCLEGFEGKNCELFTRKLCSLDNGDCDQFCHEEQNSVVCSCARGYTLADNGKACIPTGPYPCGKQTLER
Sequence of Coagulation factor X (P00742 235-488 limits assumed): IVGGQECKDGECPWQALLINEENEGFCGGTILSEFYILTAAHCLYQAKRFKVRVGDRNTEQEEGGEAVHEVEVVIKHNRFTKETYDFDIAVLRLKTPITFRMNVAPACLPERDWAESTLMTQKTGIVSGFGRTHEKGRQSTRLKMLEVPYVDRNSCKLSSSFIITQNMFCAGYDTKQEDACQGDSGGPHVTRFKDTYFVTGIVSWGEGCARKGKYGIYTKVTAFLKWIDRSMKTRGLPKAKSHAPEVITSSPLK

| Structure (SMILES) | Ki |
| --- | --- |
| CN1CCC([C@@H](NC(=O)c2cc3ccccc3n2Cc2cccc(C(=N)N)c2)c2ccc3cc(Cl)ccc3c2)CC1 | 0.61 µM |
| COc1cccc(CNC(=O)c2cc3c(O)cccc3n2Cc2cccc(C(=N)N)c2)c1 | 0.308 µM |
| N=C(N)c1cccc(Cn2c(C(=O)NCCNc3cccc4ccccc34)cc3c(O)cccc32)c1 | 0.318 µM |
| N=C(N)c1cccc(Cn2c(C(=O)NCCc3ccc(Cl)c(Cl)c3)cc3c(O)cccc32)c1 | 0.918 µM |
| N=C(N)c1cccc(Cn2c(C(=O)NCCc3ccc(Cl)cc3Cl)cc3c(O)cccc32)c1 | 0.84 µM |
| COc1cc(CNC(=O)c2cc3c(O)cccc3n2Cc2cccc(C(=N)N)c2)cc(OC)c1 | 0.193 µM |
| C[C@H](NC(=O)c1cc2cc(OCc3ccccc3)ccc2n1Cc1cccc(C(=N)S)c1)c1ccccc1 | 4.83 µM |
| COC(=O)c1cccc(CNC(=O)c2cc3c(O)cccc3n2Cc2cccc(C(=N)N)c2)c1 | 2.04 µM |
| C[N+]1(C)CCC(C(NC(=O)c2cc3ccccc3n2Cc2cccc(C(=N)N)c2)c2ccc3cc(Cl)ccc3c2)CC1 (centres undefined) | 1.31 µM |
| N=C(N)c1cccc(Cn2c(C(=O)NCc3cc(F)cc(F)c3)cc3c(O)cccc32)c1 | 0.191 µM |
| N=C(N)c1cccc(Cn2c(C(=O)NCc3ccnc4ccccc34)cc3c(O)cccc32)c1 | 0.3 µM |
| N=C(N)c1cccc(Cn2c(C(=O)NCC3CCCCC3)cc3c(O)cccc32)c1 | 1.11 µM |
| N=C(N)c1cccc(Cn2c(C(=O)NCc3cccc(C(N)=O)c3)cc3ccccc32)c1 | 0.24 µM |
| COc1cccc2c1cc(C(=O)NC(c1ccccc1)c1ccncc1)n2Cc1cccc(C(=N)N)c1 (centres undefined) | 6.79 µM |
| CCOC(=O)c1cc2ccccc2n1Cc1cccc(C(=N)N)c1 | 4.2 µM |
| CN(CCNC(=O)c1cc2c(O)cccc2n1Cc1cccc(C(=N)N)c1)c1cccc2ccccc12 | 2.47 µM |
| Cc1cccc2c1cc(C(=O)NCc1cccc(-c3ccccc3)c1)n2Cc1cccc(C(=N)N)c1 | 0.325 µM |
| N=C(N)c1cccc(CNC(=O)c2cn(Cc3cccc(C(=N)N)c3)c3ccccc23)c1 | 1.23 µM |
| C[N+](C)(C)c1ccc(CNC(=O)c2cn(Cc3cccc(C(=N)N)c3)c3ccccc23)cc1 | 1.82 µM |
| COC(=O)c1c(C)c2ccccc2n1Cc1cccc(C(=N)N)c1 | 8.8 µM |
| CN(C)c1ccc(CNC(=O)c2cc3cc(F)ccc3n2Cc2cccc(C(=N)N)c2)cc1 | 3.52 µM |
| Cc1cccc2c1cc(C(=O)NCc1ccc([N+](C)(C)C)cc1)n2Cc1cccc(C(=N)N)c1 | 0.016 µM and 0.014 µM |

| Structure (SMILES) | Ki |
| --- | --- |
| C[n+]1cccc(CC(NC(=O)c2cc3ccccc3n2Cc2cccc(C(=N)N)c2)C(N)=O)c1 (centres undefined) | 3.9 µM |
| COc1ccc2cc(C(=O)NCc3ccc([N+](C)(C)C)cc3)n(Cc3cccc(C(=N)N)c3)c2c1 | 1.76 µM |
| C[n+]1ccc(CCNC(=O)c2cc3ccccc3n2Cc2cccc(C(=N)N)c2)cc1 | 1.3 µM |
| C[N+](C)(C)c1ccc(CNC(=O)c2cc3cc(F)ccc3n2Cc2cccc(C(=N)N)c2)cc1 | 0.066 µM and 0.09 µM |
| C[N+](C)(C)c1ccc(CNC(=O)c2cc3cc(S(C)(=O)=O)ccc3n2Cc2cccc(C(=N)N)c2)cc1 | 0.226 µM |
| Cc1c(F)ccc2c1cc(C(=O)NCc1ccc([N+](C)(C)Cc3ccccc3)cc1)n2Cc1cccc(C(=N)N)c1 | 0.245 µM |
| COC(=O)c1c(C(=O)NCc2cc[n+](C)cc2)n(Cc2cccc(C(=N)N)c2)c2ccccc12 | 0.35 µM |
| C[n+]1ccc(CNC(=O)c2cc3ccccc3n2Cc2ccc(C(=N)N)cc2)cc1 | 0.6 µM |
| C[n+]1ccc(CNC(=O)c2cc3cc(F)ccc3n2Cc2cccc(C(=N)N)c2)cc1 | 0.36 µM |
| CCN(Cc1cc[n+](C)cc1)C(=O)c1cc2ccccc2n1Cc1cccc(C(=N)N)c1 | 0.5 µM |
| Cc1cccc2c1cc(C(N)=O)n2Cc1cccc(C(=N)N)c1 | 7.91 µM |
| Cc1cccc2c1cc(C(=O)NCc1ccc(O)cc1)n2Cc1cccc(C(=N)N)c1 | 1.61 µM |
| N=C(N)c1cccc(Cn2c(C(=O)NCc3cccc(F)c3)cc3c(O)cccc32)c1 | 0.72 µM |
| CSC(=O)c1cc2c(O)cccc2n1Cc1cccc(C(=N)N)c1 | 2.99 µM |
| N=C(N)c1cccc(Cn2c(C(=O)NCc3ccccc3)cc3c(O)cccc32)c1 | 2.03 µM |
| N=C(N)c1cccc(Cn2c(C(=O)NCc3ccc4ccc5cccc6ccc3c4c56)cc3c(O)cccc32)c1 | 2.06 µM |
| N=C(N)c1cccc(Cn2c(C(=O)NNS(=O)(=O)c3ccccc3)cc3c(O)cccc32)c1 | 7.05 µM |
| N=C(N)c1cccc(Cn2c(C(=O)NC(c3ccccc3)c3ccncc3)cc3ccccc32)c1 (centres undefined) | 7.03 µM |
| N=C(N)c1cccc(Cn2c(C(N)=O)cc3c(O)cccc32)c1 | 7.16 µM |
| N=C(N)c1cccc(Cn2c(C(=O)NCc3ccccn3)cc3c(O)cccc32)c1 | 3.33 µM |
| CN(C)c1ccc(CNC(=O)c2cn(Cc3cccc(C(=N)N)c3)c3ccccc23)cc1 | 2.19 µM |
| Cc1cccc2c1cc(C(=O)NCc1ccc(N(C)C)cc1)n2Cc1cccc(C(=N)N)c1 | 1.31 µM |

| Structure (SMILES) | Ki |
| --- | --- |
| N=C(N)c1cccc(Cn2c(C(=O)NCCc3ccc(Br)cc3)cc3c(O)cccc32)c1 | 1.63 µM |
| N=C(N)c1cccc(Cn2c(C(=O)NCc3cccc(C(F)(F)F)c3)cc3c(O)cccc32)c1 | 0.476 µM |
| N=C(N)c1cccc(Cn2c(C(=O)NCc3ccccc3Cl)cc3c(O)cccc32)c1 | 1.2 µM |
| Cc1cccc2c1cc(C(=O)NCc1cc[n+]([O-])cc1)n2Cc1cccc(C(=N)N)c1 | 14.5 µM |
| N=C(N)c1cccc(Cn2c(C(=O)NCc3ccc4ccccc4c3)cc3c(O)cccc32)c1 | 1.72 µM |
| N=C(N)c1cccc(CNC(=O)c2cc3ccccc3n2Cc2cccc(C(=N)N)c2)c1 | 0.026 µM and 0.019 µM |
| N=C(N)c1cccc(Cn2c(C(=O)NCc3cccc(C(=O)O)c3)cc3c(O)cccc32)c1 | 10 µM |
| N=C(N)c1cccc(Cn2c(C(=O)NCc3cccc4ccccc34)c(Cl)c3ccccc32)c1 | 0.304 µM |
| N=C(N)c1cccc(Cn2c(C(=O)NCC(=O)Nc3ccc4ccccc4c3)cc3c(O)cccc32)c1 | 2.38 µM |
| COc1ccc2c(cc(C(=O)NCc3ccncc3)n2Cc2cccc(C(=N)N)c2)c1OC | 5.31 µM |
| Cc1cccc2c1cc(C(=O)NCc1ccnc3ccccc13)n2Cc1cccc(C(=N)N)c1 | 0.173 µM |
| N=C(N)c1ccc(CNC(=O)c2cn(Cc3cccc(C(=N)N)c3)c3ccccc23)cc1 | 1.12 µM |
| N=C(N)c1cccc(Cn2c(C(=O)NCc3ccc(Cl)c(Cl)c3)cc3c(O)cccc32)c1 | 0.841 µM |
| COC(=O)c1c(C(=O)OC)n(Cc2cccc(C(=N)N)c2)c2ccccc12 | 7.5 µM |
| N=C(N)c1cccc(Cn2c(C(=O)NCc3ccc(Cl)cc3)cc3ccccc32)c1 | 3.6 µM |
| COc1cccc2c1cc(C(=O)NCCc1ccc(O)cc1)n2Cc1cccc(C(=N)N)c1 | 0.97 µM |
| N=C(N)c1cccc(Cn2c(C(=O)NCc3cccc(NC(N)=O)c3)cc3c(O)cccc32)c1 | 0.18 µM |
| N=C(N)c1cccc(Cn2c(C(=O)NCCc3ccc(Cl)cc3)cc3c(O)cccc32)c1 | 1.56 µM |
| COc1ccc(CNC(=O)c2cc3c(O)cccc3n2Cc2cccc(C(=N)N)c2)cc1 | 1.36 µM |
| CCOC(=O)c1cc2c(C)cccc2n1Cc1cccc(C(=N)N)c1 | 0.948 µM |
| N=C(N)c1cccc(Cn2c(C(N)=O)cc3ccccc32)c1 | 5.65 µM |

Now from value to compound:

| Ki | Structure (SMILES) |
| --- | --- |
| 0.133 µM | N=C(N)c1cccc(CNC(=O)c2cc3cc(OCc4ccccc4)ccc3n2Cc2cccc(C(=N)N)c2)c1 |
| 0.044 µM | Cc1cccc2c1cc(C(=O)OCc1cccc(C(=N)N)c1)n2Cc1cccc(C(=N)N)c1 |
| 0.051 µM | N=C(N)c1cccc(CNC(=O)c2cc3cc(N)ccc3n2Cc2cccc(C(=N)N)c2)c1 |
| 0.068 µM | N=C(N)c1cccc(Cn2c(C(=O)NCc3cccc4ccccc34)cc3c(O)cccc32)c1 |
| 0.025 µM | Cc1cccc2c1cc(C(=O)NCC1CCN(C(=N)N)CC1)n2Cc1cccc(C(=N)N)c1 |
| 0.077 µM | N=C(N)c1cccc(CNC(=O)c2cc3cc(O)ccc3n2Cc2cccc(C(=N)N)c2)c1 |
| 0.06 µM | C[N+](C)(C)c1ccc(CNC(=O)c2cc3cc(N)ccc3n2Cc2cccc(C(=N)N)c2)cc1 |
| 0.11 µM | COc1cccc2c1cc(C(=O)NCc1ccc(-c3cc[n+](C)cc3)cc1)n2Cc1cccc(C(=N)N)c1 |
| 0.084 µM | C[N+](C)(C)c1ccc(CNC(=O)c2cc3c(OCc4ccccc4)cccc3n2Cc2cccc(C(=N)N)c2)cc1 |
| 0.15 µM | C[n+]1ccc(CNC(=O)c2cc3ccccc3n2Cc2cccc(C(=N)N)c2)cc1 |
| 0.103 µM | CC[N+](C)(C)c1ccc(CNC(=O)c2cc3cc(F)ccc3n2Cc2cccc(C(=N)N)c2)cc1 |
| 0.092 µM | CC(NC(=O)c1cc2ccccc2n1Cc1cccc(C(=N)N)c1)c1cc[n+](C)cc1 (centres undefined) |
| 0.024 µM | C[N+](C)(C)c1ccc(CNC(=O)c2cc3c(Br)cccc3n2Cc2cccc(C(=N)N)c2)cc1 |
| 0.062 µM | COc1cccc2c1cc(C(=O)NCc1ccc([N+](C)(C)C)cc1)n2Cc1cccc(C(=N)N)c1 |
| 0.094 µM | COc1ccc2c(c1)cc(C(=O)NCc1ccc([N+](C)(C)C)cc1)n2Cc1cccc(C(=N)N)c1 |
| 0.17 µM | Cc1c(C(=O)NCc2cc[n+](C)cc2)n(Cc2cccc(C(=N)N)c2)c2ccccc12 |
| 0.05 µM | C[n+]1ccc(CNC(=O)c2cc3c(O)cccc3n2Cc2cccc(C(=N)N)c2)c2ccccc21 |
| 0.17 µM | COC(=O)CN(Cc1cc[n+](C)cc1)C(=O)c1cc2ccccc2n1Cc1cccc(C(=N)N)c1 |
| 0.141 µM | C=CC[N+](C)(C)c1ccc(CNC(=O)c2cc3cc(F)ccc3n2Cc2cccc(C(=N)N)c2)cc1 |
| 0.076 µM | C#CC[N+](C)(C)c1ccc(CNC(=O)c2cc3cc(F)ccc3n2Cc2cccc(C(=N)N)c2)cc1 |
| 0.134 µM | C[N+](C)(C)c1ccc(CNC(=O)c2cc3cc(Br)ccc3n2Cc2cccc(C(=N)N)c2)cc1 |
| 0.16 µM | COc1cccc2c1cc(C(=O)NCCc1cc[n+](C)cc1)n2Cc1cccc(C(=N)N)c1 |
| 0.144 µM | C[N+](C)(C)c1ccc(CNC(=O)c2cc3cc([N+](=O)[O-])ccc3n2Cc2cccc(C(=N)N)c2)cc1 |
| 0.013 µM | Cc1cc(C)cc(CNC(=O)c2c(Br)c3ccccc3n2Cc2cccc(C(=N)N)c2)c1 |
| 0.117 µM | N=C(N)c1cccc(Cn2c(C(=O)NCc3cccc(Br)c3)cc3c(O)cccc32)c1 |
| 0.061 µM | N=C(N)c1cccc(COC(=O)c2cc3cc(OCc4ccccc4)ccc3n2Cc2cccc(C(=N)N)c2)c1 |
| 0.096 µM | Cc1cccc2c1cc(C(=O)NCc1cccc3ccccc13)n2Cc1cccc(C(=N)N)c1 |
| 0.042 µM | N=C(N)c1cccc(Cn2c(C(=O)NCc3cccc(I)c3)cc3c(O)cccc32)c1 |
| 0.085 µM | N=C(N)c1cccc(Cn2c(C(=O)NCc3cc(Cl)cc(Cl)c3)c(Br)c3ccccc32)c1 |
